# Tests used:
# [1] = target: T1, Melanocyte-stimulating hormone receptor (Homo sapiens, UniProt Q01726); experiment: Binding affinity in competition with [125I]NDP-MSH on recombinant melanocortin 1 receptor
# [2] = target: Melanocortin receptor 3 (Homo sapiens, UniProt P41968); experiment: Binding affinity in competition with [125I]NDP-MSH on recombinant melanocortin 3 receptor
# [3] = target: Melanocortin receptor 4 (Homo sapiens, UniProt P32245); experiment: Binding affinity in competition with [125I]NDP-MSH on recombinant melanocortin 4 receptor
# [4] = target: T2, Melanocortin receptor 5 (Homo sapiens, UniProt P33032); experiment: Binding affinity in competition with [125I]NDP-MSH on recombinant melanocortin 5 receptor
# [5] = target: T1, Melanocyte-stimulating hormone receptor; experiment: Tested for its binding affinity in competition with [125I]NDP-MSH on recombinant human Melanocortin 1 receptor; nb = no binding
# [6] = target: T2, Melanocortin receptor 5; experiment: Tested for its binding affinity in competition with [125I]NDP-MSH on recombinant Melanocortin 5 receptor; nb = no binding
# Chain of Melanocortin receptor 3 (P41968 whole entry): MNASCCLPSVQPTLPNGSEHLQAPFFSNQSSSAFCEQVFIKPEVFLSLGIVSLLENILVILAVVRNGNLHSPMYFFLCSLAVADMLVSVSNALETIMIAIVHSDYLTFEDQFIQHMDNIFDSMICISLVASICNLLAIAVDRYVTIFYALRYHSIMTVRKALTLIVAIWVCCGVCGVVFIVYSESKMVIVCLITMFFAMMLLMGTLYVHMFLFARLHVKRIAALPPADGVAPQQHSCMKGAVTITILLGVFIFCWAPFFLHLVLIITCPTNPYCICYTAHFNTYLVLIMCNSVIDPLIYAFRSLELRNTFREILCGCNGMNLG
# T2 sequence (P33032 whole entry): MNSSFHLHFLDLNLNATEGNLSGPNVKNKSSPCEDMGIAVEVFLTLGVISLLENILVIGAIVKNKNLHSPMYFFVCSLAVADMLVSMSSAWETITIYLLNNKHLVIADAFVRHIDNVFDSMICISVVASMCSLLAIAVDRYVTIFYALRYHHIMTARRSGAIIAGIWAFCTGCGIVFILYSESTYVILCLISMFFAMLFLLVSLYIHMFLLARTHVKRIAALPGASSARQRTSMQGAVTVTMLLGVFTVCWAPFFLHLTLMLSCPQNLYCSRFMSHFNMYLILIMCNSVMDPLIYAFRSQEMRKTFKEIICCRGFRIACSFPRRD
# T1 sequence (Q01726 whole entry): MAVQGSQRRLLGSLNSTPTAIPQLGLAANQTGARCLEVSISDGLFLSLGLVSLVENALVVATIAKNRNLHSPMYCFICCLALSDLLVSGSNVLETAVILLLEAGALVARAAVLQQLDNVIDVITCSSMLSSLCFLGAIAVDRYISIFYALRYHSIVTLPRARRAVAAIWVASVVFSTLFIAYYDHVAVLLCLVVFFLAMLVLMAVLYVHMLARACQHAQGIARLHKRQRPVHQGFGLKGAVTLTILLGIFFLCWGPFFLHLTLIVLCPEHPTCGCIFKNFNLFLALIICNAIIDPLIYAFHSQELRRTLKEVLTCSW
# Chain of Melanocortin receptor 4 (P32245 whole entry): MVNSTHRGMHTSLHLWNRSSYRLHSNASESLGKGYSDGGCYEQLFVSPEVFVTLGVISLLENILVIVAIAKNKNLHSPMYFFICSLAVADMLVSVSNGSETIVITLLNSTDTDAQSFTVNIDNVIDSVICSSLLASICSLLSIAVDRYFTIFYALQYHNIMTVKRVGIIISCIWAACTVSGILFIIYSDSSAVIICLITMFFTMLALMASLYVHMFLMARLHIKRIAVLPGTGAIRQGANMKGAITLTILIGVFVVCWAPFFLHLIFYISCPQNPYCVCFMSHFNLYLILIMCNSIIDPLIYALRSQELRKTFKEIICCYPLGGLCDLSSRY
SMILES,Ki [1],Ki [2],Ki [3],Ki [4],Ki [5],Ki [6]
NC(N)=NCCC[C@@H](NCc1c[nH]c2ccccc12)C(=O)O,> 1 µM,> 1 µM,> 1 µM,> 1 µM,–,–
N=C(N)NCCC[C@H](NCc1ccc2ccccc2c1)C(=O)Nc1ccc2ccccc2c1,2.9 µM,14 µM,14 µM,6.6 µM,–,–
NC(=O)[C@@H](Cc1ccc2ccccc2c1)NCc1c[nH]c2ccccc12,74 µM,> 1000 µM,> 1000 µM,95 µM,–,–
NC(=O)[C@H](Cc1ccc2ccccc2c1)NCc1c[nH]c2ccccc12,26 µM,> 1000 µM,> 1000 µM,60 µM,–,–
N=C(N)NCCC[C@H](NCc1c[nH]c2ccccc12)C(N)=O,> 1 µM,> 1 µM,> 1 µM,> 1 µM,–,–
COc1ccc(CN[C@H](CCCNC(=N)N)C(=O)O)c(Cl)c1OC,> 1 µM,> 1 µM,> 1 µM,> 1 µM,–,–
O=C(NCCc1c[nH]cn1)[C@@H]1C[C@H](O)CN1Cc1ccc2ccccc2c1,–,161 µM,150 µM,50 µM,Not Active,–
COc1ccc(CN[C@H](CCCNC(=N)N)C(=O)O)cc1OC,> 1 µM,> 1 µM,> 1 µM,> 1 µM,–,–
N=C(N)NCCC[C@H](NCc1ccc2ccccc2c1)C(N)=O,> 1 µM,> 1 µM,> 1 µM,> 1 µM,–,–
N=C(N)NCCC[C@H](NCc1ccc2ccccc2c1)C(=O)N[C@@H](Cc1c[nH]c2ccccc12)C(N)=O,29 µM,107 µM,105 µM,74 µM,–,–
N=C(N)NCCC[C@H](NCC1CCc2ccccc2C1)C(N)=O (some centres undefined),> 1000 µM,155 µM,134 µM,130 µM,–,–
O=C(NCc1ccc2ccccc2c1)[C@H]1CCCN1CCc1c[nH]c2ccccc12,–,752 µM,166 µM,–,Not Active,Not Active
N=C(N)NCCC[C@@H](NCc1ccc2ccccc2c1)C(=O)N[C@@H](Cc1c[nH]c2ccccc12)C(N)=O,32 µM,147 µM,56 µM,56 µM,–,–
N=C(N)NCCC[C@H](NCc1ccc2ccccc2c1)C(=O)Nc1cccc2ccccc12,1.3 µM,6.4 µM,6.8 µM,8.7 µM,–,–
NC(=O)[C@@H](Cc1c[nH]c2ccccc12)NCc1ccc2ccccc2c1,15 µM,53 µM,64 µM,37 µM,–,–
N=C(N)NCCC[C@@H](NCc1ccc2ccccc2c1)C(N)=O,> 1000 µM,> 1000 µM,> 1000 µM,125 µM,–,–
NC(N)=NCCCC(NCc1c[nH]c2ccccc12)C(=O)O (centres undefined),> 1 µM,> 1 µM,> 1 µM,> 1 µM,–,–
COc1ccc(CN[C@@H](CCCNC(=N)N)C(N)=O)c(Cl)c1OC,> 1 µM,> 1 µM,> 1 µM,> 1 µM,–,–
NC(=O)[C@H](Cc1c[nH]c2ccccc12)NCc1ccc2ccccc2c1,8.7 µM,56 µM,139 µM,42 µM,–,–
NC(N)=NCCCNC(=O)[C@@H]1C[C@H](O)CN1Cc1ccc2ccccc2c1,2.9 µM,82 µM,279 µM,221 µM,–,–
N=C(N)NCCCNC(=O)[C@H](CCCN=C(N)N)NCc1ccc2ccccc2c1,4.5 µM,4.8 µM,30 µM,–,–,Not Active
N=C(N)NCCC[C@@H](NCc1c[nH]c2ccccc12)C(N)=O,> 1 µM,> 1 µM,> 1 µM,> 1 µM,–,–
COc1ccc(CNC(CCCN=C(N)N)C(=O)O)cc1OC (centres undefined),> 1 µM,> 1 µM,> 1 µM,> 1 µM,–,–
COc1ccc(CN[C@@H](CCCN=C(N)N)C(N)=O)cc1OC,> 1 µM,> 1 µM,> 1 µM,> 1 µM,–,–
C=CCOC(=O)[C@H](CCCNC(=N)N)NCc1ccc2ccccc2c1,5.9 µM,28 µM,15 µM,15 µM,–,–
N=C(N)NCCC[C@H](NCc1c[nH]c2ccccc12)C(=O)N[C@@H](Cc1c[nH]c2ccccc12)C(N)=O,> 1000 µM,> 1000 µM,205 µM,184 µM,–,–
